Laboratory results as given in article PMC10334471, “Tumor-targeted dual-action NSAID-platinum(IV) anticancer prodrugs” (Inorganic Chemistry Frontiers, 2023).

Key:
[1] = system: CT26 (murine); assay: MTT assay, 72 h, CT26; assay type: cell-based; details: 72 h treatment, mean ± SD
Method: (§1) All cell cultures were grown at 37 °C in a humidified atmosphere containing 5% CO2. HCT116, RKO and HT-29 cells were cultured in McCoy's 5A Modified Media (Sigma-Aldrich, St. Louis, MO, USA) supplemented with 10% heat-inactivated fetal calf serum (FCS, PAA, Linz, Austria) and 2 mM glutamine (Sigma-Aldrich, St. Louis, MO, USA). The murine (Balb/c) colon cancer cell model CT26 (purchased from American Type Culture Collection, Manassas, VA, USA) were cultured in DMEM/F12 supplemented with 10% fetal calf serum (FCS). SW480 and Caco-2 cells were cultured in MEME media supplemented with 10% and 20% FCS, respectively. All cell culture media and reagents were purchased from Sigma-Aldrich Austria. […] The cells were regularly checked for Mycoplasma contamination.
(§2) Depending on their proliferation rate, cells were seeded at a density of 3500–5000 cells per well in 96-well microtiter plates and allowed to adhere overnight. […] Cell viability was determined using the 3-(4,5-dimethylthiazol-2-yl)-2,5-diphenyltetrazolium bromide (MTT) assay (EZ4U, Biomedia, Vienna, Austria) according to the manufacturer's recommendation. Depending on the metabolic capacity, the cell lines were incubated between one and three hours at 37 °C and subsequently absorbance was measured at 450 nm (620 nm as a reference) with a Tecan Reader infinite® M200Pro (Tecan Group Ltd, Switzerland). Data were analyzed using Graph Pad prism (version 8.0.1) by using the point-to-point function. […] Following, dose–response curves were calculated using the point-to-point function.

[2] = system: colorectal cancer cell line panel; assay: MTT assays, 72 h, whole panel comparison; assay type: cell-based; details: in most cell lines of the panel
Method: All cell cultures were grown at 37 °C in a humidified atmosphere containing 5% CO2. HCT116, RKO and HT-29 cells were cultured in McCoy's 5A Modified Media (Sigma-Aldrich, St. Louis, MO, USA) supplemented with 10% heat-inactivated fetal calf serum (FCS, PAA, Linz, Austria) and 2 mM glutamine (Sigma-Aldrich, St. Louis, MO, USA). The murine (Balb/c) colon cancer cell model CT26 (purchased from American Type Culture Collection, Manassas, VA, USA) were cultured in DMEM/F12 supplemented with 10% fetal calf serum (FCS). SW480 and Caco-2 cells were cultured in MEME media supplemented with 10% and 20% FCS, respectively. All cell culture media and reagents were purchased from Sigma-Aldrich Austria. […]
Depending on their proliferation rate, cells were seeded at a density of 3500–5000 cells per well in 96-well microtiter plates and allowed to adhere overnight. […] Cell viability was determined using the 3-(4,5-dimethylthiazol-2-yl)-2,5-diphenyltetrazolium bromide (MTT) assay (EZ4U, Biomedia, Vienna, Austria) according to the manufacturer's recommendation. Depending on the metabolic capacity, the cell lines were incubated between one and three hours at 37 °C and subsequently absorbance was measured at 450 nm (620 nm as a reference) with a Tecan Reader infinite® M200Pro (Tecan Group Ltd, Switzerland). Data were analyzed using Graph Pad prism (version 8.0.1) by using the point-to-point function. […]

[3] = system: SW480; assay: MTT assay, 72 h, SW480; assay type: cell-based; details: 72 h treatment, mean ± SD
Method: as §1, §2

[4] = Released salicylic acid in serum of mice after single i.v. administration (UHPLC-MS); details: for Free salicylic acid in serum, share of administered dose: tumor-free Balb/c mice
Method: After 10 min, 1 h and 24 h blood was collected via the facial vein. Serum was isolated by centrifugation at 900 g for 10 min for two times and stored at −80 °C. Platinum content was detected by ICP-MS measurements, using an Agilent 7800 (Agilent Technologies, Tokyo, Japan) equipped with an Agilent SPS 4 autosampler (Agilent Technologies, Tokyo, Japan) and a MicroMist nebulizer. The Agilent MassHunter software package (Workstation Software, Version C.01.04, 2018) was used for data evaluation. The ICP-MS operation parameters are given in Table S1. ^† Salicylic acid was extracted and detected as described above.

[5] = Stability in aqueous buffer pH 7.4 (HPLC); assay type: physicochemical; details: 1 mM, 250 mM phosphate buffer pH 7.4, 20 °C, 25 h, HPLC
Method: (§3) Phosphate buffer (250 mM, pH 7.4) containing 1 mM platinum compound was incubated at 20 °C, with and without the addition of 10 eq. L-ascorbic acid. […] A gradient of 5–95% over 5 minutes was used. To evaluate the current state of the reaction, the peak area of the parental complex was used.

[6] = Preliminary oral tolerability experiments in tumor-free mice; assay type: in vivo; details: 52.8 mg kg^−1 p.o.
From the text: It is well known that COX-2 is involved in the paracrine signaling between immune cells, resulting in a pro-tumorigenic tumor microenvironment.[10,33] Consequently, we got interested in the impact of the Asa ligand on the anticancer activity of the drugs in vivo. Therefore, we chose immune-competent murine colon cancer CT26 allografts as test system, which were characterized by high COX-2 expression (Fig. S4 ^†). […] Thus, the experiment was stopped on day 19 due to a distinct drop in body weight in these animals. As Asa is clinically applied p.o., we tested the efficacy of OxAsaOAc and asplatin in an oral application setting. […] For the therapy experiment, the animals were treated with OxAsaOAc and asplatin for five subsequent days over two weeks. […] Consequently, we concluded that the drug doses reaching the tumor in these therapy settings were insufficient, which prompted us to aim for carrier systems with enhanced tumor-targeting properties.

[7] = target: T1, albumin (Bos taurus, UniProt P02769); assay: Albumin binding in fetal calf serum by SEC-ICP-MS; assay type: in vitro ADME; details: 100 μM in FCS (150 mM phosphate buffer, pH 7.4), 37 °C, up to 6 h
T1 construct: Fetal calf serum was purchased from Sigma-Aldrich and buffered with 150 mM phosphate pH 7.4; tissue Sigma-Aldrich; host or cells: fetal calf serum
Method: Fetal calf serum was purchased from Sigma-Aldrich and buffered with 150 mM phosphate pH 7.4 in order to guarantee a stable pH. The platinum(IV) complexes (5 mM) were dissolved in 150 mM phosphate buffer (pH 7.4) and diluted 1 : 50 in the buffered serum to obtain a final concentration of 100 μM. The samples were then incubated in the autosampler at 37 °C and analyzed every 1 h for 6 h. Between each sample a pure water blank was measured. For SEC-ICP-MS measurements an Agilent 1260 Infinity system coupled to an Agilent 7800 ICP-MS equipped with a dynamic reaction cell was used. Oxygen (purity 5.5, Messer Austria GmbH, Gumpoldskirchen, Austria) was used as reaction gas.

[8] = Reduction kinetics with 10 eq. ascorbic acid (UHPLC); assay type: physicochemical; details: 1 mM, 250 mM phosphate buffer pH 7.4, 20 °C, 10 eq. ascorbic acid
Method: as §3

[9] = system: HCT116/OxR; assay: MTT assay, 72 h, HCT116/OxR (oxaliplatin-resistant); assay type: cell-based; details: 72 h treatment, mean ± SD
Method: as §1, §2

[10] = system: Caco-2; assay: MTT assay, 72 h, Caco-2; assay type: cell-based; details: Caco-2, MTT, 72 h treatment, mean ± SD
Method: as §1, §2

[11] = system: RKO; assay: MTT assay, 72 h, RKO; assay type: cell-based; details: 72 h treatment, mean ± SD
Method: as §1, §2

[12] = system: HT-29; assay: MTT assay, 72 h, HT-29; assay type: cell-based; details: for IC50: HT-29, MTT, 72 h treatment, mean ± SD
Method: as §1, §2

[13] = system: CT26 allografts; assay: Anticancer activity i.v. in CT26-bearing mice; assay type: in vivo, Balb/c mice; details: i.v., 4-times over 2 weeks, doses equimolar to 9 mg kg^−1 oxaliplatin
Method: (§4) All experiments were executed according to the regulation of the Ethics Committee for the Care and Use of Laboratory Animals at the Medical University Vienna. 8–12 weeks old BALB/c were kept in a pathogen-free environment with a 12 h light dark-cycle with ad libitum access to food and water. Every procedure was performed in a laminar airflow under sterile condition. Tumor growth and possible side effects of drug treatment were evaluated by daily recording the tumor size by caliper measurement according to the formula length × width^2/2 and parameters of the animal's overall health conditions.
(§5) CT26 cells (5 × 10^5 cells in 50 μl serum-free medium) were injected s.c. into the right flank of female BALB/c mice. […] Asa was treated orally using 50 mg kg^−1 in 5% DMSO/0.9% NaCl. Every day, the animals were monitored for the overall health conditions. Additionally, tumor size was measured. In case of a decreased body weight of ∼20% or ulcerated tumors, animals were sacrificed by cervical dislocation and tumors as well as organs were collected.

[14] = system: CT26 allografts; assay: Oral anticancer activity in CT26 allografts; assay type: in vivo, Balb/c mice; details: OxAsaOAc 52.8 mg kg^−1 p.o., five subsequent days over two weeks
Method: It is well known that COX-2 is involved in the paracrine signaling between immune cells, resulting in a pro-tumorigenic tumor microenvironment.[10,33] Consequently, we got interested in the impact of the Asa ligand on the anticancer activity of the drugs in vivo. […] As Asa is clinically applied p.o., we tested the efficacy of OxAsaOAc and asplatin in an oral application setting. […] For the therapy experiment, the animals were treated with OxAsaOAc and asplatin for five subsequent days over two weeks.
as §4

[15] = system: HCT116; assay: MTT assay, 72 h, HCT116; assay type: cell-based; details: 72 h treatment, mean ± SD
Method: as §1, §2

[16] = system: CT26 allografts; assay type: in vivo; details: oxaliplatin 9 mg kg^−1 i.v.
Method: as §4, §5

[17] = system: CT26 allografts; design: method as in not given; details: reported MTD; ref not given; cited from earlier work

T1 sequence (P02769 25-607): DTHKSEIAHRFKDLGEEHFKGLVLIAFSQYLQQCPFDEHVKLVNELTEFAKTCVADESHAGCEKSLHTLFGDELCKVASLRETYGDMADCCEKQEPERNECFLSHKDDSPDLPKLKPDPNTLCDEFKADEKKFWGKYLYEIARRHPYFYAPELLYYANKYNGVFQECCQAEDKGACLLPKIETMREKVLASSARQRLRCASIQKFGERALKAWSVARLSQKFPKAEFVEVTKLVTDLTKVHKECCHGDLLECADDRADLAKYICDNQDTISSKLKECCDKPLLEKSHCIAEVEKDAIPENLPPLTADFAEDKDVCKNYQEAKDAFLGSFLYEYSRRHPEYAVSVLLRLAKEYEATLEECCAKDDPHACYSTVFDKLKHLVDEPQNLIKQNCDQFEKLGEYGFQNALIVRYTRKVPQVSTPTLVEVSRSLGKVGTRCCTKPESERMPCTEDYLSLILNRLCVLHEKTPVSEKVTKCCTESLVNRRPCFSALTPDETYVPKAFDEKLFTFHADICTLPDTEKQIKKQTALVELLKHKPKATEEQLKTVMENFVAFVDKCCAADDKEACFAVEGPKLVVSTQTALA

For `CC(=O)Oc1ccccc1C(=O)[O][Pt-2]12([O]C(C)=O)([NH2+][C@@H]3CCCC[C@H]3[NH2+]1)[O]C(=O)C(=O)[O]2` [OxAsaOAc, (OC-6-44)-acetato(2-acetoxybenzoato)[(1R,2R)-1,2-cyclohexanediamino]oxalatoplatinum(IV)], the IC50 [1] was 12.8 ± 0.8 µM, the “Fold more active than Ox(OAc)2” value [2] was “about 2 fold” and the IC50 [3] was 11.2 ± 1.3 µM. The “Free salicylic acid in serum, share of administered dose” value ([4]; 10 min after single i.v. dose equimolar to 9 mg kg^−1 oxaliplatin) was < 5 mol%, the “Free salicylic acid in serum, share of administered dose” value ([4]; 1 h after single i.v. dose equimolar to 9 mg kg^−1 oxaliplatin) was < 5 mol% and the “Salicylic acid level in serum” value ([4]; 24 h after single i.v. dose equimolar to 9 mg kg^−1 oxaliplatin, below LOD) was < 3 µM. For the same compound, the “Stability in aqueous solution” value [5] was “high stability”, the Tolerability [6] was “well tolerable” and the “Binding to albumin (or any other protein)” value [7] was < 5%. For the same compound, the “Intact complex after 6 h” value ([8]; 6 h) was 92%, the “Intact complex after 24 h” value ([8]; 24 h) was 53% and the IC50 [9] was 42.8 ± 4.3 µM. The IC50 [10] was 17.9 ± 2.1 µM, the IC50 [11] was 4.3 ± 0.4 µM and the “Fold higher activity than Ox(OAc)2” value ([12]; HT29 cells) was 4 fold. For the same compound, the IC50 [12] was 32.7 ± 5.5 µM, the “Tolerability (body weight)” value [13] was “well tolerated” and the “Anticancer activity (tumor growth, overall survival)” value ([13]; CT26) was “significant impact on both tumor growth as well as overall survival”. The “Impact on tumor growth” value [14] was “none of the drugs had any impact on tumor growth” and the IC50 [15] was 9.9 ± 1.5 µM.
For `O=C1[O][Pt]2([NH][C@@H]3CCCC[C@H]3[NH]2)[O]C1=O` [Oxaliplatin, oxaliplatin], the IC50 [1] was 1.8 ± 0.2 µM, the IC50 [3] was 1 ± 0.2 µM and the “Response of tumor model (tumor growth)” value [16] was “responsiveness”. For the same compound, the MTD [17] was 9 mg/kg, the IC50 [9] was 27.8 ± 5.2 µM and the IC50 [11] was 0.4 ± 0.04 µM. For the same compound, the IC50 [12] was 5.3 ± 1.2 µM and the IC50 [15] was 0.8 ± 0.1 µM.
